Source: publication PMC9728921, “Characterization of a KDM5 small molecule inhibitor with antiviral activity against hepatitis B virus” (PLOS ONE, 2022)

Key:
Assay type in all cases: biochemical
PRMT4 = molecular target: T1, PRMT4 (Homo sapiens, UniProt Q86X55); assay: Histone methyltransferase enzymatic assay, PRMT4; settings: enzyme conc. 100 nM
T1 construct: 2-608
Experimental: (§1) Histone methyltransferase assays were performed in 96-well half-area optiplates (PerkinElmer) at room temperature. All concentrations are final unless noted otherwise. Compounds were serially diluted in DMSO and the final DMSO concentration was 1%. A 24 μL reaction mixture contained compound, enzyme, 200 nM of nucleosome or histone substrate, 400 nM ^3H-SAM (83.1 Ci/mmol), 50 mM Tris-HCl (pH 8.0), 50 mM NaCl, 5 mM MgCl2, 1 mM DTT, and 0.01% Tween-20. The plate was sealed, mixed on a Titramax plate shaker at 1200 rpm for 30 sec, and incubated at room temperature for 60 min. The reaction was quenched by addition of 24 μL mixture containing 5 mg/mL PVT-PEI beads and 300 μM unlabeled SAM in water. The plate was sealed, mixed as previously noted, incubated overnight, and read on a TopCount plate reader (PerkinElmer).
(§2) Data was analyzed using GraphPad Prism 6.0 (La Jolla, CA). […] IC50 values were calculated as an average of at least two independent experiments.

KDM3B = KDM3B (Homo sapiens, UniProt Q7LBC6); assay: KDM3B enzymatic assay (AlphaLISA)
Experimental: (§3) The following assay protocol was used for all histone demethylases tested except KDM1A, KDM5A, B, and D, which are described below. Compounds were serially diluted into a 384-well Alpha plate as a DMSO solution and mixed with 5 μL reaction buffer (buffer A) containing 50 mM HEPES (pH 7.0), 0.1% BSA, and 0.003% Tween-20. The enzyme of interest was pre-incubated with 15 μM of Fe^2+ for 10 min (except 30 min for KDM2B) in reaction buffer A. 5 μL of the enzyme mixture was added to each of the compound-containing wells and incubated for 10 min. The reaction was started by addition of a 5 μL mixture containing 300 nM peptide substrate, 75 μM L-ascorbic acid, and 30 μM α-ketoglutarate in buffer A. This final 15 μL of reaction mixture was incubated for 20 min for KDM5B and 1 hour for the other KDM enzymes. The reaction was quenched with 10 μL of diluted AlphaLISA Acceptor beads (1:400) in Epigenetics Buffer and incubated for 60 min. The Donor beads were diluted 1:400 into Epigenetics Buffer in the dark and 10 μL of this was added to each well and incubated for another 60 min in the dark. The assay plates were read on an Enspire plate reader (PerkinElmer) using a standard AlphaLISA program.
as §2

KDM2B = molecular target: T2, KDM2B (Homo sapiens, UniProt Q8NHM5); assay: KDM2B enzymatic assay (AlphaLISA)
T2 sequence (Q8NHM5 1-1336): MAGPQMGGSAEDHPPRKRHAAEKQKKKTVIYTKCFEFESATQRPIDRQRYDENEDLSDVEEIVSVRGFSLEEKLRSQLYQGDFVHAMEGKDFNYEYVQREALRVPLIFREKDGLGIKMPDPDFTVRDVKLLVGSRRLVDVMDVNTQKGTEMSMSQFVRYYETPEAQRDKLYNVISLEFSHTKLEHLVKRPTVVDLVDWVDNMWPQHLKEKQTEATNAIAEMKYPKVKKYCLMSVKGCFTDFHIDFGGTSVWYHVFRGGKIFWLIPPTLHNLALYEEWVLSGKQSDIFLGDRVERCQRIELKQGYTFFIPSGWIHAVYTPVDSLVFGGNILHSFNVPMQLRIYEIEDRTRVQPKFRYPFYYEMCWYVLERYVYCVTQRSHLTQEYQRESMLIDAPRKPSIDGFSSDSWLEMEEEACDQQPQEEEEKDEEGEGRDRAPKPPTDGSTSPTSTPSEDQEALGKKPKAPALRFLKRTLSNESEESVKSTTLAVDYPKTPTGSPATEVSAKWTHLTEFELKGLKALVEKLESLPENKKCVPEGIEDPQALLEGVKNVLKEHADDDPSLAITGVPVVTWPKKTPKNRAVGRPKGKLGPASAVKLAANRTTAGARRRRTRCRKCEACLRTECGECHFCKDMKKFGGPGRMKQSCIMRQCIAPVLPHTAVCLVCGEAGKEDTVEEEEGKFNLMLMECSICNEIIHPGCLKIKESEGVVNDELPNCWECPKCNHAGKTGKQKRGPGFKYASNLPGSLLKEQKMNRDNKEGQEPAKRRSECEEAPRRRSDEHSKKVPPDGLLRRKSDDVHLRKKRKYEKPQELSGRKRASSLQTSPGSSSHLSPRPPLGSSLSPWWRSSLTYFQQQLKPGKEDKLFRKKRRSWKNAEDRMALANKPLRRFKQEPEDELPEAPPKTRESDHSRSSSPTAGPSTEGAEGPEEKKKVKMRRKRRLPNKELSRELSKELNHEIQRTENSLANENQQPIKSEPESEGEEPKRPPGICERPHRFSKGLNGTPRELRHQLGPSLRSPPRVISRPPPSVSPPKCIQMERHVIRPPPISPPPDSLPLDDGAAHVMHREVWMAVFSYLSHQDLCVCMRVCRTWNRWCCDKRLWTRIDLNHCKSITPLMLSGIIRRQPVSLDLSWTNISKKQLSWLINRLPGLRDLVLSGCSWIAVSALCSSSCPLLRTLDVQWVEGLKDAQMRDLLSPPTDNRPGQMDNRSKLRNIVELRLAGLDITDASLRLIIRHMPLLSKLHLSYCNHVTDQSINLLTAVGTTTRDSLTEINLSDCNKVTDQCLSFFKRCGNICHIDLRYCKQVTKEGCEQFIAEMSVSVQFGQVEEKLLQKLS
Experimental: as §3, §2

GLP = molecular target: T3, GLP (Homo sapiens, UniProt Q9H9B1); assay: Histone methyltransferase enzymatic assay, GLP; settings: enzyme conc. 100 nM; read-out: IC50
T3 construct: 894-1298; purchased RBC (read as Reaction Biology Corporation, named)
Experimental: as §1, §2

PRMT5/MEP50 = PRMT5/MEP50 (Homo sapiens, UniProt O14744); assay: Histone methyltransferase enzymatic assay, PRMT5/MEP50; settings: enzyme conc. 100 nM
Experimental: as §1, §2

Chain of KDM3B (Q7LBC6 whole entry): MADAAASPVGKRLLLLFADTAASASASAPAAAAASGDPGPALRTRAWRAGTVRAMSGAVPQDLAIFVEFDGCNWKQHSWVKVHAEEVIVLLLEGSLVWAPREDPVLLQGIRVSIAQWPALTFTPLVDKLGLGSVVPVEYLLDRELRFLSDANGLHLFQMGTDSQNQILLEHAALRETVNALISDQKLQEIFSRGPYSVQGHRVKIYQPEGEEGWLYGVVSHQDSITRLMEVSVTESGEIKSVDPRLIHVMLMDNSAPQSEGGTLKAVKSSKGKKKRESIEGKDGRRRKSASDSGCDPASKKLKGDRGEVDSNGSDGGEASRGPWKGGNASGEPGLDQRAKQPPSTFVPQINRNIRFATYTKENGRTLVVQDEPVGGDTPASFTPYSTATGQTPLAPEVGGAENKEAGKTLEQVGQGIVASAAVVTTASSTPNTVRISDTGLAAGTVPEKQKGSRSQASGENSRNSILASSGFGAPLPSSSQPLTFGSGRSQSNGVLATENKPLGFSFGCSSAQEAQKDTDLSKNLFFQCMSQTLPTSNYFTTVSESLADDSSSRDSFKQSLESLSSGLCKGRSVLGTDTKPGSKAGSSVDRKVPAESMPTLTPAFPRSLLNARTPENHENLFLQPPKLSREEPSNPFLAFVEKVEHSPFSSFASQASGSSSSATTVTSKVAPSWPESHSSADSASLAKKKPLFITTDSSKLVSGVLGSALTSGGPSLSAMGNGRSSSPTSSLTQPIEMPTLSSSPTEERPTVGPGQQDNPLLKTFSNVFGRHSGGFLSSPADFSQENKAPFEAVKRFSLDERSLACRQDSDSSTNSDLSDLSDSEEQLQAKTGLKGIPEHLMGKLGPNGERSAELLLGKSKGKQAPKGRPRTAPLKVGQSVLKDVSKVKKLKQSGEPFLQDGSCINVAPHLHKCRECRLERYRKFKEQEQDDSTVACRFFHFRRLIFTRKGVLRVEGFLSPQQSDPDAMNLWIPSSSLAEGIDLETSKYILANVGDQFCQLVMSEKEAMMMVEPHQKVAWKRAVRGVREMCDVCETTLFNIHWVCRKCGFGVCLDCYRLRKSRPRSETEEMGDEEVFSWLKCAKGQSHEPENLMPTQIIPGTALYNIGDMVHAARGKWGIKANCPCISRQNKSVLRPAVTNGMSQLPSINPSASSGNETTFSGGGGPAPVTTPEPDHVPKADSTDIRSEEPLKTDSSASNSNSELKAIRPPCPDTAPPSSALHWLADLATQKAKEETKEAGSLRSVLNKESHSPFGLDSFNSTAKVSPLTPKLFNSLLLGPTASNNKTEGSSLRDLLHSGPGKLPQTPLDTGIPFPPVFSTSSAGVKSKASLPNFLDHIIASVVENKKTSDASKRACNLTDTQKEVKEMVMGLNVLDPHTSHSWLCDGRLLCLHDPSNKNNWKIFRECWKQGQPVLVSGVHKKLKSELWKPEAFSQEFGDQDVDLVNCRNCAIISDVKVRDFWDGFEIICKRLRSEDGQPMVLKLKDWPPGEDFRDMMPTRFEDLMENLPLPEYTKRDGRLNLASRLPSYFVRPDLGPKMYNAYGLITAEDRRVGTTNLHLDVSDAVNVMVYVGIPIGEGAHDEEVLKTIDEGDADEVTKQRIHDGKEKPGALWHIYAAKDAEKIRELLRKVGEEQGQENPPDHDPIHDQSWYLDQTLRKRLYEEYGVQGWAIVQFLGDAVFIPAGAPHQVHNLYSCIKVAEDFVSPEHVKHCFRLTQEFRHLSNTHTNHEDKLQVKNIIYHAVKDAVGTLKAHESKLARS
T3 sequence (Q9H9B1 894-1298): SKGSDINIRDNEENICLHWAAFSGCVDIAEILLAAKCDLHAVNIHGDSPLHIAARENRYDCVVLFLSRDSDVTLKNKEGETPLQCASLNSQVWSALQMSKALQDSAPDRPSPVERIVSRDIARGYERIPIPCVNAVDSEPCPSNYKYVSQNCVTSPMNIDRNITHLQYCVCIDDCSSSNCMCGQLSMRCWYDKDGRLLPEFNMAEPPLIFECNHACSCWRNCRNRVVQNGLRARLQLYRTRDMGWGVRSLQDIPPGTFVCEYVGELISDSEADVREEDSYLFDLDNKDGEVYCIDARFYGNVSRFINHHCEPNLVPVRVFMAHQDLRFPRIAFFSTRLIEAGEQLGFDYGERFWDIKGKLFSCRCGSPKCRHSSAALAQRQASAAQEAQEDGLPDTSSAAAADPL
Chain of PRMT5/MEP50 (O14744 2-637): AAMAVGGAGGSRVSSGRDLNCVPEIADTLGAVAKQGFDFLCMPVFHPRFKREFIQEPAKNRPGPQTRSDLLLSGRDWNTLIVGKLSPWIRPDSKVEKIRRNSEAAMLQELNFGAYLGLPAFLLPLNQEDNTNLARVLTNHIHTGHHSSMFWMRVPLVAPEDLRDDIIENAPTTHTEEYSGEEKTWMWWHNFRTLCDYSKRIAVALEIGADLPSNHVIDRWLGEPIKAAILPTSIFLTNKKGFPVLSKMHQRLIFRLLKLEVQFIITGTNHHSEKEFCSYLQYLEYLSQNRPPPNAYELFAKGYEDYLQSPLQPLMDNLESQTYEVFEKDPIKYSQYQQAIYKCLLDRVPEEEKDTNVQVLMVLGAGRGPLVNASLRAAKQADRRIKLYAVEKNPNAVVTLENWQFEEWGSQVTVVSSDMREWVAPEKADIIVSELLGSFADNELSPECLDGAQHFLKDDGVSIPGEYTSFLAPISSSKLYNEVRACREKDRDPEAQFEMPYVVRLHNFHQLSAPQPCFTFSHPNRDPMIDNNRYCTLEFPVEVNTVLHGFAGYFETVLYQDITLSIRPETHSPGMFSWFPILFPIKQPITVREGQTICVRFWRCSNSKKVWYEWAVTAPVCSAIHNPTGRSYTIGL
Chain of PRMT5/MEP50 (Q9BQA1 3-342 partner limits assumed): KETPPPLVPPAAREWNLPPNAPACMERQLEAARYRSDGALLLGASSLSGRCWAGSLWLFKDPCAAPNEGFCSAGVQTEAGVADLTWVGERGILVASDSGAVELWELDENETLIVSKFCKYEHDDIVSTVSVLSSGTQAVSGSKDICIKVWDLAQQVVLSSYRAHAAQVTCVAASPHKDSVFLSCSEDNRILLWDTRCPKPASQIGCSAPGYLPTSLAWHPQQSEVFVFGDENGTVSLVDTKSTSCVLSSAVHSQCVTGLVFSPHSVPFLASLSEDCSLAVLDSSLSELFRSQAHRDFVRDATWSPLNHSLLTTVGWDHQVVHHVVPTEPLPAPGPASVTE
T1 sequence (Q86X55 2-608): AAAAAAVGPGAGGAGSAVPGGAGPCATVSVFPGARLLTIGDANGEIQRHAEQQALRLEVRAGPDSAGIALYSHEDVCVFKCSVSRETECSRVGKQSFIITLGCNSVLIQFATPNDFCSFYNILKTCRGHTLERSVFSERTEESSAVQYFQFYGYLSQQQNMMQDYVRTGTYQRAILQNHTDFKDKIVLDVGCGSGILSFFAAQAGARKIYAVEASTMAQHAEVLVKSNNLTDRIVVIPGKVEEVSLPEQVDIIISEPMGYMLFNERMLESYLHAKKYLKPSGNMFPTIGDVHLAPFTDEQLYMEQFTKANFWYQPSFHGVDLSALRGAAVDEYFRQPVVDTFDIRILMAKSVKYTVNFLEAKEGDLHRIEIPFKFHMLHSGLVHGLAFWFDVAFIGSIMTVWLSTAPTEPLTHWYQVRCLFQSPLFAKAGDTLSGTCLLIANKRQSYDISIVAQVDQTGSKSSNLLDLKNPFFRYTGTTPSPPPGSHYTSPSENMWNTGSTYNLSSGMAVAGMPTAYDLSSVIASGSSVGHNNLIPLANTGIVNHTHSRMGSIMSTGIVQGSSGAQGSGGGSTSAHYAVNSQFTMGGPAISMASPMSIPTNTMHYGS

IC50 (PRMT4): > 100 µM
Fold Selectivity Compared to KDM5A (KDM3B; IC50 of KDM3B over KDM5A): > 27,800 fold
IC50 (KDM3B; enzyme concentration 0.1 nM): > 10 µM
Fold Selectivity Compared to KDM5A (KDM2B; IC50 of KDM2B over KDM5A): > 1,720 fold
IC50 (KDM2B; enzyme concentration 2 nM): 0.62 µM
IC50 (GLP): > 100 µM
IC50 (PRMT5/MEP50): > 100 µM
SMILES: CCN(CCN(C)C)C(=O)CNCc1cc(C(=O)O)ccn1 [GS-080]
